Reference: US20220233512A1, “INHIBITING AN IMMUNE RESPONSE MEDIATED BY ONE OR MORE OF TLR2, RAGE, CCR5, CXCR4 AND CD4” (priority 2020, published 2022)

Biological target: T1, mu opiate receptor (MOR) (Rattus norvegicus, UniProt P33535)
T1 construct: from tissue; host or cells: striatum (membrane preparation)
Assay: MOR agonist activity using [35S]GTPgS binding assay in striatal membranes
Assay type: biochemical
Design: MOR agonist activity (preliminary study): unit of the concentration uncertain
Conditions: for MOR agonist activity (preliminary study): average of two runs
Outline: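 Rat striatal membranes incubated 5 min at 30 °C in pH 7.5 HEPES buffer with 100 mM NaCl, 1 mM MgCl2 and 0.5 nM [35S]GTPgS, then 5 min with compound. Gαo-bound [35S]GTPgS isolated by immunoprecipitation and counted by liquid scintillation.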

[1] = 0.1 μM compound as agonist, Series C-2 table
[2] = 1 μM compound as agonist, Series C-2 table
[3] = 0.1 μM compound as agonist, Series C-1 table
[4] = 1 μM compound as agonist, Series C-1 table

T1 sequence (P33535 whole entry): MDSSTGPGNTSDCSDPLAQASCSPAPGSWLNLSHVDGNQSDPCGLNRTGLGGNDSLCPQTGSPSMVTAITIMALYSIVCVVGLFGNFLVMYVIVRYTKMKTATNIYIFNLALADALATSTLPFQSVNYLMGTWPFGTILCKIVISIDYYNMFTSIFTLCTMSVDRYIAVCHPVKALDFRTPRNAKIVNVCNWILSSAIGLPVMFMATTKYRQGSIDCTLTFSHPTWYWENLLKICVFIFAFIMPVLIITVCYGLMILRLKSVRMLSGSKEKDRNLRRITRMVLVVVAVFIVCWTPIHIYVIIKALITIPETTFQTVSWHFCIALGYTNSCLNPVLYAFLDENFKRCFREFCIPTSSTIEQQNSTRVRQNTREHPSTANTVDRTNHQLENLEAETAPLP

Compound	MOR agonist activity ([35S]GTPgS binding to Gao) [1]	MOR agonist activity ([35S]GTPgS binding to Gao) (1 μM + BFNA, Series C-2 table)	MOR agonist activity ([35S]GTPgS binding to Gao) [2]	MOR agonist activity (preliminary study) (1 mM + bNFA)	MOR agonist activity (preliminary study) (0.1 (unit uncertain) compound as agonist)	MOR agonist activity (preliminary study) (1 (unit uncertain) compound as agonist)	MOR agonist activity ([35S]GTPgS binding to Gao) [3]	MOR agonist activity ([35S]GTPgS binding to Gao) (1 μM + BFNA, Series C-1 table)	MOR agonist activity ([35S]GTPgS binding to Gao) [4]
CS(=O)(=O)c1ccc(S(=O)(=O)N2CCOC23CCN(CC2CC2)CC3)cc1 [Compound C0126M]	181.8%	108.5%	265.3%						
CC(=O)c1ccc(S(=O)(=O)N2CC(CN(C)C)OC23CCN(CC2CC2)CC3)cc1 (stereo not drawn) [Compound C0128M]	197.8%	63.9%	286.0%						
COc1ccc(S(=O)(=O)N2CCOC23CCN(C(C)C)CC3)cc1 [Compound C0133M]	139.4%	72.4%	214.8%						
Cc1ccc(S(=O)(=O)N2CCOC23CCN(CC2CC2)CC3)cc1 [Compound C0134M]	158.5%	46.6%	207.3%	53.2%	150.7%	224.0%			
CCc1ccc(S(=O)(=O)N2CCOC23CCN(CC2CC2)CC3)cc1 [Compound C0135M]	161.3%	113.3%	310.1%						
O=C1CN(Cc2ccccc2)C2(CCN(S(=O)(=O)c3cc(Cl)cc(Cl)c3O)CC2)N1 [Compound C0138M]							126.9%	51.5%	183.9%
O=C1CN(Cc2ccccc2)C2(CCN(S(=O)(=O)c3cc(Cl)c(O)c(Cl)c3)CC2)N1 [Compound C0139M]							156.1%	51.0%	206.6%
O=S(=O)(c1ccc2ccccc2c1)N1CCC2(CC1)OCCN2S(=O)(=O)c1ccc2ccccc2c1 [Compound C0140M]							126.1%	83.0%	215.4%
O=S(=O)(c1cccs1)N1CCC2(CC1)OCCN2S(=O)(=O)c1cccs1 [Compound C0141M]							161.5%	47.9%	213.9%
COc1ccc(S(=O)(=O)N2CCC3(CC2)NCCC(=O)N3)cc1 [Compound C0142M]	143.7%	98.7%	192.5%						
O=S(=O)(c1cccc2cccnc12)N1CCC2(CC1)OCCN2S(=O)(=O)c1cccc2cccnc12 [Compound C0143M]	81.0%	86.5%	193.3%				81.0%	86.5%	193.3%
COc1ccc(S(=O)(=O)N2CCC3(NCCO3)C3CCCCC32)cc1 (stereo not drawn) [Compound C0144M-2]	186.3%	125.9%	295.9%						
COc1ccc(S(=O)(=O)N2CCC3(OCCN3S(=O)(=O)c3ccc(OC)cc3)C3CCCCC32)cc1 (stereo not drawn) [Compound C0144M]							186.3%	125.9%	295.9%
COc1ccc(S(=O)(=O)N2CCOC23CCCNC3)cc1 (stereo not drawn) [Compound C0145M-3]	193.0%	87.0%	289.2%						
COc1ccc(S(=O)(=O)N2CCCC3(C2)OCCN3S(=O)(=O)c2ccc(OC)cc2)cc1 (stereo not drawn) [Compound C0145M]							193.0%	87.0%	289.2%
